The results in this text go back to ChEMBL document CHEMBL1201862, “PubChem BioAssay data set” (2004).

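96-well plates; 48 h exposure; 5 concentrations. Endpoints by linear interpolation between flanking doses. Not reached: highest tested concentration assigned. GI50 marks 50% less growth.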 Activity calls are given as the source filed them. No stated cut-off is given here; in the data, active = GI50 up to about 1.1 µM and inactive = higher. *1 amine or outer side, *2 acyl side, *3 side chain or, on linkers, in order; H or OH if unused. Where a SMILES comes first, the peptide text is derived from it. Bridges are numbered along the chain shown (N, C = ends). Roman numbers before positions name the chains, in order. [ ]: non-standard residue; d: D form. Actinocin(9to1) = Cc1c2oc3c(C)ccc(C(=O)[*:1])c3nc-2c(C(=O)[*:2])c(N)c1=O; NMeV = CN[CH](C(=O)O)C(C)C; Sar = CNCC(=O)O

Common to all, as to assay: NCI anticancer screen, dose series, 48 h
The test system of assay [1] is SF-539.
Assay [2] deals with HL-60.
Assay [3] concerns OVCAR-8.
The test system of assay [4] is PC-3.
The subject of assay [5] is MDA-MB-435.
The subject of assay [6] is SF-268.
Assay [7] concerns UACC-62.
The subject of assay [8] is Hs-578T.
Assay [9] concerns T47D.
Assay [10] relates to OVCAR-5.
Assay [11] has as its system DU-145.
The test system of assay [12] is MDA-MB-231.
For assay [13], the system named is BT-549.
The test system of assay [14] is MDA-N.
The test system of assay [15] is HT-29.
In assay [16] the test system is SF-295.
In assay [17] the test system is HCT-116.

As for `COc1cccc(/C=C2/S/C(=N/Nc3nc(C)c(C(C)=O)s3)NC2=O)c1O`, the GI50 is 34.8 µM (inactive) in assay [1]; 12.4 µM (inactive) in assay [2]; 34.3 µM (inactive) in [3]; 25.9 µM (inactive) in [4]; 30.5 µM (inactive) in [5]; 40.6 µM (inactive) in [6]. The GI50 in assay [7] was 20.1 µM (inactive); in assay [8], 57.8 µM (inactive); in [9], 23.3 µM (inactive); in assay [10], 26.4 µM (inactive); in assay [11], 34.4 µM (inactive); in assay [12], 18.9 µM (inactive). The GI50 in assay [13] is 28.9 µM (inactive); in [14], 31.7 µM (inactive); in assay [15] it was 37.6 µM (inactive); in assay [16], 52.8 µM (inactive); in assay [17] it was 30.7 µM (inactive).
Take `Oc1cccc(-c2nc3ccccc3s2)c1`: the GI50 in assay [1] is 28.7 µM (inactive); in assay [2] it was 47.8 µM (inactive); in assay [3], 27.2 µM (inactive); in [4], 23.2 µM (inactive); in [5] it was 30.7 µM (inactive); in assay [6] it was 19.8 µM (inactive). The GI50 was 34.8 µM (inactive) in assay [7]; 15.5 µM (inactive) in assay [8]; 10.2 µM (inactive) in assay [9]; 14.8 µM (inactive) in assay [10]; 38.7 µM (inactive) in assay [11]; 22.1 µM (inactive) in assay [12]. The GI50 is 33 µM (inactive) in assay [13]; 27.8 µM (inactive) in [14]; 18.8 µM (inactive) in assay [15]; 26.7 µM (inactive) in assay [16]; 33 µM (inactive) in assay [17].
On to `Cc1c2oc3c(C)ccc(C(=O)NC4C(=O)NC(C(C)O)C(=O)N5CCCC5C(=O)N(C)CC(=O)N(C)C(C(C)C)C(=O)OC4C)c3nc-2c(C(=O)NC2C(=O)NC(C(C)O)C(=O)N3CCCC3C(=O)N(C)CC(=O)N(C)C(C(C)C)C(=O)OC2C)c(N)c1=O` (configuration not stated) (I: TTP[Sar][NMeV] / II: TTP[Sar][NMeV]; ester I:1-I:C, II:1-II:C; linker I:N-II:N via Actinocin(9to1); configuration not given here), for which the GI50 is 0.0764 µM (active) in assay [1]; 0.437 µM (active) in [2]; 0.195 µM (active) in [3]; 1.06 µM (active) in [4]; 0.413 µM (active) in assay [5]; 0.198 µM (active) in [6]. In addition, the GI50 in assay [7] is 0.103 µM (active); in assay [8], 1.41 µM (inactive); in [9] it was 0.184 µM (active); in assay [10] it was 1.95 µM (inactive); in [11], 1.32 µM (inactive); in [12] it was 3.76 µM (inactive). For the same molecule, the GI50 was 0.0155 µM (active) in assay [13]; 1.08 µM (active) in assay [14]; 0.34 µM (active) in assay [15]; 0.453 µM (active) in assay [16]; 0.0456 µM (active) in [17].
For `CSC1(C)C(=O)Nc2c(OCc3ccccc3)cc([N+](=O)[O-])cc21` (configuration not stated), the GI50 in assay [1] is 66.1 µM (inactive); in [2], 40.7 µM (inactive); in [3], 21.5 µM (inactive); in assay [4] it was 27 µM (inactive); in assay [5], 78.3 µM (inactive); in assay [6], 31.6 µM (inactive). Moreover, the GI50 in [7] was 19.6 µM (inactive); in assay [8] it was 17.7 µM (inactive); in assay [9], 19.3 µM (inactive); in assay [10] it was 63 µM (inactive); in assay [11], > 100 µM (inactive); in assay [12], 26.7 µM (inactive). In addition, the GI50 in [13] was 51.1 µM (inactive); in assay [14] it was 30.1 µM (inactive); in assay [15] it was 79.3 µM (inactive); in assay [16], 57.1 µM (inactive); in assay [17], 85.5 µM (inactive).
For the molecule `CN(C)CC1CCC/C(=C\c2ccccc2)C1=O` (configuration not stated), the GI50 in assay [1] was 4.04 µM (inactive); in assay [2], 0.512 µM (active); in assay [3], 3.94 µM (inactive); in [4], 8.49 µM (inactive); in assay [5], 1.78 µM (inactive); in [6], 2.94 µM (inactive). In addition, the GI50 in [7] was 7.01 µM (inactive); in [8] it was 2.77 µM (inactive); in [9] it was 2.12 µM (inactive); in assay [10], 15.6 µM (inactive); in assay [11], 15.3 µM (inactive); in assay [12], 1.98 µM (inactive). Moreover, the GI50 in [13] was 7.69 µM (inactive); in [14] it was 2.99 µM (inactive); in [15], 1.75 µM (inactive); in assay [16] it was 19.5 µM (inactive); in assay [17] it was 1.56 µM (inactive).
`Nn1c(S)nnc1COc1cccc(OCc2nnc(S)n2N)c1`: the GI50 in [1] is 80 µM (inactive); in [2], 86.3 µM (inactive); in [3], > 100 µM (inactive); in [4], > 100 µM (inactive); in [5], > 100 µM (inactive); in [6], > 100 µM (inactive). Also, the GI50 in assay [7] was 83.2 µM (inactive); in assay [8] it was > 100 µM (inactive); in [9], > 100 µM (inactive); in assay [10] it was > 100 µM (inactive); in assay [11], > 100 µM (inactive); in [12] it was > 100 µM (inactive). For the same molecule, the GI50 in [13] is > 100 µM (inactive); in [14], > 100 µM (inactive); in assay [15], 43.7 µM (inactive); in assay [16], > 100 µM (inactive); in [17], > 100 µM (inactive).
For `CC(C)N(C(=O)C1(O)c2ccccc2C=Cc2ccccc21)C(C)C`, the GI50 in assay [1] was 18.7 µM (inactive); in [2], 1.92 µM (inactive); in [3] it was 16.9 µM (inactive); in assay [4] it was 15.5 µM (inactive); in [5] it was 30.1 µM (inactive); in [6], 21.5 µM (inactive). Further, the GI50 in [7] was 15.4 µM (inactive); in assay [8], 45.9 µM (inactive); in [9] it was 16.6 µM (inactive); in assay [10], 14.4 µM (inactive); in [11] it was 17.9 µM (inactive); in [12] it was 15.7 µM (inactive). Also, the GI50 in [13] was 18.8 µM (inactive); in [14] it was 19.3 µM (inactive); in assay [15] it was 15.3 µM (inactive); in assay [16], 17.8 µM (inactive); in assay [17], 17.5 µM (inactive).
For the molecule `NN=C(S)Nc1cccc(Cl)c1`, the GI50 is > 100 µM (inactive) in assay [1]; > 100 µM (inactive) in [2]; 81.5 µM (inactive) in assay [3]; 48.2 µM (inactive) in [4]; 83.6 µM (inactive) in assay [5]; > 100 µM (inactive) in assay [6]. For the same molecule, the GI50 was > 100 µM (inactive) in assay [7]; > 100 µM (inactive) in assay [8]; 74.8 µM (inactive) in assay [9]; > 100 µM (inactive) in assay [10]; > 100 µM (inactive) in [11]; > 100 µM (inactive) in assay [12]. Besides, the GI50 in assay [13] is > 100 µM (inactive); in assay [14], > 100 µM (inactive); in assay [15], 37.4 µM (inactive); in assay [16], 69.2 µM (inactive); in assay [17] it was 36.3 µM (inactive).
As to `CC1(C)[C@H](C(=O)O)N2C(=O)[C@@H](NS(=O)(=O)c3ccc([N+](=O)[O-])cc3)[C@H]2S1(=O)=O`, the GI50 in assay [1], in [2], in assay [3], in assay [4], in assay [5] and in assay [6] was > 100 µM (inactive) throughout. Also, the GI50 in assay [7], in assay [8], in [9], in assay [10], in assay [11] and in [12] was > 100 µM (inactive) in each case. For the same molecule, the GI50 in assay [13], in assay [14], in assay [15], in [16] and in assay [17] was > 100 µM (inactive) throughout.
Regarding `COc1ccc2nc3cc(Cl)ccc3c(NCCCCCC(=O)NC(COc3ccc4ccc5cccnc5c4n3)COc3ccc4ccc5cccnc5c4n3)c2c1`, the GI50 in assay [1] was 16.9 µM (inactive); in assay [2], 9.64 µM (inactive); in assay [3], 41.2 µM (inactive); in assay [4], 15.2 µM (inactive); in assay [5], 38.6 µM (inactive); in assay [6], 17.9 µM (inactive). Moreover, the GI50 in [7] was 21.7 µM (inactive); in assay [8], 29 µM (inactive); in assay [9], 20.1 µM (inactive); in assay [10], 24.4 µM (inactive); in [11], 11.5 µM (inactive); in assay [12], 19.4 µM (inactive). Also, the GI50 in assay [13] is 1.67 µM (inactive); in assay [14], 23 µM (inactive); in assay [15], 27.9 µM (inactive); in [16] it was 29.8 µM (inactive); in assay [17], 8.24 µM (inactive).
`FC(F)(F)c1ccc2c(c1)nc1n2C(c2c(Cl)cccc2Cl)SC1` (configuration not stated): the GI50 in assay [1] is 19.7 µM (inactive); in assay [2] it was 23.8 µM (inactive); in [3] it was 25.4 µM (inactive); in assay [4], 15 µM (inactive); in assay [5], 16.8 µM (inactive); in assay [6], 19.1 µM (inactive). Also, the GI50 is 14.4 µM (inactive) in [7]; 19.7 µM (inactive) in assay [8]; 15.8 µM (inactive) in [9]; 15.5 µM (inactive) in [10]; 21.4 µM (inactive) in [11]; 17 µM (inactive) in assay [12]. Further, the GI50 was 23 µM (inactive) in assay [13]; 16.6 µM (inactive) in assay [14]; 16.1 µM (inactive) in assay [15]; 16.6 µM (inactive) in [16]; 15.1 µM (inactive) in assay [17].
